Laboratory results: patent publication US20120190707A1, “SELECTIVE INHIBITORS OF AKT AND METHODS OF USING SAME” (priority 2008, published 2012)

Assays:
c-Jun = assay: Levels of HSP90 client protein c-Jun; format: cell-based; conditions: data not shown
From the text: Among cellular proteins implicated in the regulation of AKT levels is the cellular chaperone HSP90. Inhibition of HSP90 chaperone function, as commonly achieved by the geldanamycin antibiotic, interferes with the conformational maturation and refolding of its associated proteins, thereby promoting their degradation (Munster et al., 2002; Neckers and Neckers, 2003). […] Thus we assessed whether association of AKT with HSP90 could be affected by BI-69A11. Immunoprecipitation of AKT from melanoma cells identified HSP90 in the immunoprecipitated material. Such association was however abolished following treatment with the BI-69A11 inhibitor (FIG. 6C). […] To this end, we also performed the experiment in the presence of the proteasome inhibitor MG132.

UACC903 melanoma cells [1] = assay: Cell death by trypan blue exclusion in UACC903 compared with 29-1 cells; format: cell-based, human
Procedure: (A) 903 and 29-1 cells were exposed to different concentrations of BI-69A11 or UV light as a positive control and the percentage of cell death determined by trypan blue exclusion assay. (B) PARP cleavage was determined in 903 and 29-1 cells after treatment with BI-69A11 at 2, 4 and 6 hours.
Since AKT activity is important for tumor cell survival, its inhibition is expected to result in cell death. We thus monitored cell death in melanoma cells that were treated with BI-69A11.
For the proliferation assays, cells were treated as described above. However, instead of scraping cells into the serum-free medium, floating cells were collected in a 15 mL centrifuge tube whereas adherent cells trypsinized gently. The total cell population was pooled and counted on a hemocytometer after staining with Trypan Blue. The percentage of dead cells was determined by calculating the number of dead cells/total cells X 100. This experiment was performed two times each in triplicate.

[2] = test system: UACC 903 melanoma xenografts; assay: UACC 903 melanoma xenografts in nude mice; format: in vivo
Procedure: (A) Nude mice were subcutaneously injected with UACC 903 cells and tumors were allowed to reach an approximate size of 1 mm^3 before intraperitoneal treatment was started; treatment was performed twice per week for 3 weeks with the indicated concentrations of BI-69A11. Each of the experimental groups consisted of 10 mice that were subjected to treatment with the indicated concentration of BI-69A11. […] Tumors were measured with calipers at the indicated time points. The mice were sacrificed and tumors harvested at the end of this period were measured and weighed to determine tumor volume and mass. Blue bars represent control-vehicle treated group; yellow bars represent the 5 mg/Kg treatment group; the orange and green bars represent the 1 and 2 mg/Kg treatment groups, respectively. (B) Analysis of cell death in the tumors was performed using Tunel staining. Shown are representative pictures for control tumors (right) and a treatment group (5 mg/Kg; left). (C) Quantification of Tunel staining in the different tumor groups. Samples from each of the tumors were subjected to Tunel staining which was quantified by Aperio ImageScope and confirmed by visual inspection of representative samples. The percentage of Tunel positive cells is indicated in the graph. […]
In light of the efficient cell death elicited by BI-69A11, we assessed its activity on tumor growth in mouse xenografts. […]
For the tumor studies, UACC 903 cells […] were injected subcutaneously and tumor size was monitored using calipers twice per week. […] At the end of the study, tumors were harvested, weighed and measured.
For the tunel assay and quantitative analysis, the detection of nuclei with fragmented DNA by terminal deoxyribonucleotidyl transferase-mediated dUTP nick end labeling (TUNEL) was accomplished using the ApopTag Peroxidase In situ Apoptosis Detection Kit (Chemicon, Temecula, Calif., US) according to the instructions of the manufacturer. […]

UACC903 melanoma cells [3] = assay: CellTiter Blue Cell Viability Assay in UACC903 cells; format: cell-based, human; conditions: 24 h post-treatment
Procedure: UACC903 melanoma cells were treated with vehicle (0 μM) or the indicated concentrations of BI-69A11, BI-83G10, or BI-98C11. 24 h post-treatment, cell viability was determined using the CellTiter Blue Cell Viability Assay (Promega, Madison Wis.) following the manufacturer's directions.

AKT = AKT phosphorylation and expression by western blot in PC3 prostate tumor cells; format: cell-based; conditions: PC3, 5 and 10 micro.M
Procedure: (A) MeWo melanoma cells growing in 60 mm plates were treated with the indicated concentration of the inhibitor for 4 h before proteins were prepared for western blot analysis using the indicated antibodies. Level of beta.actin was monitored as a control for protein loading. (B) Experiment was performed as indicated in panel A, except that cells were harvested after 24 h for analysis of cell death using trypan blue staining. (C) Melanoma (MeWo), prostate cancer (PC3) and breast cancer (MCF7) cells were treated with BI-69A11 at the indicated concentrations; levels of AKT phosphorylation or expression were assessed 4 h later. The level of beta.actin used as a control for protein loading. (D) Experiment was performed as indicated in panel C, except that cells were harvested after 4 h for analysis of cell death using trypan blue staining.
For western blotting techniques, cells were lysed in RIPA buffer containing 50 mM TrisHCl pH7.4, 150 mM NaCl, 2 mM EDTA, 1% NP-40, 0.1% SDS. The protein concentration was estimated using the Coomassie Protein assay kit (Thermo Scientific, Rockford, Ill., USA). Equal concentrations of cell lysate (30-50 ug) were resolved on a 10% polyacrylamide gel and transferred onto Nitrocellulose membrane (GE Amersham). Membranes were blocked for 1-2 hours in either 3% BSA or 5% nonfat dried milk in Tris-buffered saline containing 0.05% Tween 20. […]

[4] = 0.5-2.0 mg/kg intra-peritoneally twice per week, 3 weeks

SMILES: O=C(/C=C/c1nc2ccccc2[nH]1)c1c(O)nc2ccc(Cl)cc2c1-c1ccccc1 [Compound 2, (E)-3-(3-(1H-benzo[d]imidazol-2-yl)acryloyl)-6-chloro-4-phenylquinolin-2(1H)-one]
- c-Jun protein levels (c-Jun): did not affect
- cell death, PTEN mutant melanoma cells compared with 29-1 cells (UACC903 melanoma cells [1]; FIG. 7A): more pronounced on PTEN mutant melanoma cells
- cell death of melanoma cells (UACC903 melanoma cells [1]; concentrations as low as 1 micro.M, within 24 hours): effective cell death
- growth of the melanoma tumors [2, 4]: effectively inhibits further growth
- regression of the tumors [2, 4]: efficient regression
- apoptosis in tumors by Tunel staining, compared with control tumors ([2]; treatment groups 0.5-2.0 mg/kg): higher degrees of apoptosis
- viability of UACC903 cells (UACC903 melanoma cells [3]): decreased the viability
- AKT protein levels (AKT): reduced levels of AKT protein
- basal level of AKT phosphorylation (AKT; 4 h): effectively inhibited
